Values joined by “and” are separate entries in the source; they are usually repeats but may differ in a detail not shown here. Identical values can stand only once.

We go through 14 molecules from paper PMC8449414, “Rational design of ASCT2 inhibitors using an integrated experimental-computational approach” (Proceedings of the National Academy of Sciences of the …, 2021).

The target in one assay is T1, hASCT2 (Homo sapiens, UniProt Q15758).
T1 construct: expressed in transfected cells; host or cells: HEK293 (ATCC CRL-11268), transient transfection
T1 sequence (Q15758 1-541): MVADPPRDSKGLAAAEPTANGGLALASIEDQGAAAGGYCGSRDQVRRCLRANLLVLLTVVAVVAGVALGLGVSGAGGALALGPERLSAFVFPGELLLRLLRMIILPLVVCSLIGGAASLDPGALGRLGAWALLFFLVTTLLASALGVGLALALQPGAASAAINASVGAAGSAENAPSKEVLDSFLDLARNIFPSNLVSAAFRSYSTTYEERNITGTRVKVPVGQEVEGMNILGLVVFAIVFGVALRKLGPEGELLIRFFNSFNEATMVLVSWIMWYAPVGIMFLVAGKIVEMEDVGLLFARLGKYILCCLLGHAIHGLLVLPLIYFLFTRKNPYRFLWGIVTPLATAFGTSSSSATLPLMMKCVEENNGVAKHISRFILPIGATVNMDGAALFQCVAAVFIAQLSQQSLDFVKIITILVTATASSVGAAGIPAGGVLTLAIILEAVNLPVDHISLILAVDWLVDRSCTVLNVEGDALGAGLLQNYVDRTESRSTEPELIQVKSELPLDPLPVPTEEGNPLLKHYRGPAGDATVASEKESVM
Kind of assay: Electrophysiology: inhibition of leak anion current in transfected HEK293 cells. The class given is cell-based. Conditions: for Ki / Binding affinity Ki (apparent Ki): HEK293 cells, 0 mV, 130 mM NaSCN internal, 140 mM NaCl external, No current = no inhibition of anion leak current up to highest concentration tested (§ 20-50, || 100-400, # 1500-2500 µM); for Ki: read-out: Binding affinity Ki (apparent Ki); for selectivity for hASCT2 over rEAAT1: ratio of Ki, hASCT2 versus rEAAT1; for activity (in words, structure activity relationship): ASCT2, species not given. The protocol: (§1) Cell culture and transfection
(§2) Human embryonic kidney 293 (HEK293, ATCC CRL -11268) cells were cultured in DMEM media supplemented with 10% (v/v) fetal bovine serum (FBS), 2 mM glutamine, 1% penicillin streptomycin solution, 1 mM sodium pyruvate and non -essential amino acids. Cells were maintained at 370C in a fully humidified atmosphere containing 5% CO2. rASCT2, hASCT2, hASCT1, EAAT1, EAAT2, EAAT3, EAAT5 and YFP complementary DNAs were each used to transiently transfect HEK293 using POLYPLUS Jet-prime transfection reagent. Cells were analyzed using electrophysiological techniques 24-40 hours after transfection.
(§3) Electrophysiological techniques
(§4) Electrophysiological experiments were performed as described previously 1,2. Stock solutions of inhibitor was prepared in dimethyl sulfoxide (DMSO) up to 100 mM.
(§5) Dilutions to working concentrations were made using external buffer. The highest

The target of the next assay is T2, rASCT2 (Rattus norvegicus, UniProt D3ZJ25).
T2 construct: expressed in transfected cells; host or cells: HEK293 (ATCC CRL-11268), transient transfection
T2 sequence (D3ZJ25 1-555): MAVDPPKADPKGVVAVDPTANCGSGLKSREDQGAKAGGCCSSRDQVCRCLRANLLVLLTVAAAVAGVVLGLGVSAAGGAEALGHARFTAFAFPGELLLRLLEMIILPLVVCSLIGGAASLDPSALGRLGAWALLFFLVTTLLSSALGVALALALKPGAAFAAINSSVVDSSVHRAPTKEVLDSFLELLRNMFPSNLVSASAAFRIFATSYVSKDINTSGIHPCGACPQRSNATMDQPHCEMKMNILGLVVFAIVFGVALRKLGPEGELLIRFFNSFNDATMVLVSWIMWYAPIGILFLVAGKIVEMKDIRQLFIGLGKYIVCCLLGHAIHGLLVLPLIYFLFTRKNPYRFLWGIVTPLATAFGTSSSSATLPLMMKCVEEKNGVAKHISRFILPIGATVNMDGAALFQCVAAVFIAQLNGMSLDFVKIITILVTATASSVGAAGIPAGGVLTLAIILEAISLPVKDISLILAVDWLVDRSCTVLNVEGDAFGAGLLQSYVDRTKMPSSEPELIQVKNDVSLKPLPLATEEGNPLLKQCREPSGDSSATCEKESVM
The description is as above. The class given is cell-based. The note with it: HEK293 cells, 0 mV, 130 mM NaSCN internal, 140 mM NaCl external, No current = no inhibition of anion leak current up to highest concentration tested (§ 20-50, || 100-400, # 1500-2500 µM); for Ki: read-out: Binding affinity Ki (apparent Ki). The protocol:
as §1, §2, §3, §4, §5

Consider `O=C(O[C@@H]1CN[C@H](C(=O)O)C1)c1ccc(C(O)c2ccccc2)cc1` (some centres unmarked) [ERA-9], for which, on hASCT2, the Ki was 5.65 µM and 5.7 µM; the “selectivity for hASCT2 over rEAAT1” value is on record as “sevenfold”. The Ki on rASCT2 turned out to be 18.8 ± 4.97 µM.

Regarding `O=C(O[C@H]1CN[C@H](C(=O)O)C1)c1ccc(C(=O)c2ccccc2)cc1` [ERA-35], the Ki on hASCT2 was greater than 500 µM; at rASCT2, 121 ± 29.9 µM.

As to `O=C(O[C@@H]1CN[C@H](C(=O)O)C1)c1ccc(-c2ccc(C(F)(F)F)cc2)cc1` [ERA-5], the Ki is 1.05 ± 0.21 µM on hASCT2 and 0.27 ± 0.05 µM at rASCT2.

For `O=C(O[C@@H]1CN[C@H](C(=O)O)C1)c1ccc(Oc2ccccc2)cc1` [ERA-16], the Ki at hASCT2 turned out to be 4.17 ± 0.46 µM; at rASCT2, 3.68 ± 0.73 µM.

As to `O=C(O[C@@H]1CN[C@H](C(=O)O)C1)c1ccc(-c2ccc(F)cc2)cc1` [ERA-4], the Ki on hASCT2 is 0.74 ± 0.09 µM; at rASCT2 it was 0.65 ± 0.04 µM.

With `O=C(O[C@@H]1CN[C@H](C(=O)O)C1)c1ccccc1-c1ccccc1` [ERA-3], at hASCT2, the “activity (in words, structure activity relationship)” value was “inactive” and the “Binding affinity Ki (apparent Ki)” value is “No current”. Further, the “Binding affinity Ki (apparent Ki)” value at rASCT2 is “No current”.

`N[C@@H](COC(=O)c1ccccc1)C(=O)O` [ERA-25]: the Ki worked out at 186 ± 17.2 µM on hASCT2 and 290 ± 16.5 µM on rASCT2.

Regarding `O=C(O[C@@H]1CN[C@H](C(=O)O)C1)c1ccc(OCc2ccccc2)cc1` [ERA-31], the “Binding affinity Ki (apparent Ki)” value on hASCT2 is given as “No current”. Moreover, the Ki on rASCT2 worked out at 8.17 ± 1.05 µM.

Take `N[C@@H](COC(=O)c1cccnc1)C(=O)O` [ERA-28]: the Ki on hASCT2 was determined as 690 ± 54.2 µM; at rASCT2, 266 ± 42.7 µM.

In the case of `N[C@@H](COC(=O)c1ccc(NC(=O)c2ccccc2)cc1)C(=O)O` [ERA-21], the Ki at hASCT2 amounted to 22.6 ± 3.66 µM; at rASCT2, 4.33 ± 1.3 µM.

In the case of `O=C(O[C@@H]1CN[C@H](C(=O)O)C1)c1ccc(-c2ccccc2)cc1` [Lc-BPE, L-cis hydroxyproline biphenyl ester], the Ki on hASCT2 was found to be 0.86 ± 0.11 µM; on rASCT2 it was 0.74 ± 0.11 µM.

For `Cc1ccccc1-c1ccc(C(=O)O[C@@H]2CN[C@H](C(=O)O)C2)cc1` [ERA-6], the Ki at hASCT2 turned out to be 1.12 ± 0.11 µM; on rASCT2, 0.97 ± 0.08 µM.

On to `O=C(O[C@@H]1CN[C@H](C(=O)O)C1)C(c1ccccc1)c1ccccc1` [ERA-29], for which, on hASCT2, the “activity (in words, structure activity relationship)” value was “no activity” and the “Binding affinity Ki (apparent Ki)” value was “No current”. Also, at rASCT2, the “Binding affinity Ki (apparent Ki)” value is reported as “No current”.

`O=C(Nc1ccc(C(=O)O[C@@H]2CN[C@H](C(=O)O)C2)cc1)c1ccc(C(F)(F)F)cc1` [ERA-11]: the Ki stood at 2.94 ± 0.93 µM on hASCT2 and 3.37 ± 0.41 µM at rASCT2. Also, the “selectivity for hASCT2 over rEAAT1” value at hASCT2 was “threefold”.
